Columns and labels:
Type in all cases: cell-based, mouse
[1] = tested on: noxin protein in NIH3T3 cells; assay: Western blot of endogenous noxin protein after stress stimuli; conditions: anti-noxin Western blot
Procedure: (§1) Western blot analysis. Cells or tissues were homogenized in the lysis buffer (10 mM Tris-HCl pH 7.5, 1 mM EDTA, 400 mM NaCl, 0.5% NP40, 5 mM NaF, 0.5 mM sodium orthovanadate, 10% glycerol, 1 mM dithiothreitol, 1 mM PMSF, 1 μg/ml aprotinin, 1 μg/ml leupeptin and 1 μg/ml pepstatin) for 20 min on ice. Following centrifugation, the soluble fraction was collected and protein concentration was determined using the BCA assay kit (Pierce). 50 μg of total protein was separated on an 8% SDS-PAGE gel and transferred to Immobilon-P membrane (Millipore Corporation) by semi-dry blotting. The membranes were incubated with anti-noxin antibody (see above) (1:1,000) followed by anti-mouse IgG or anti-rabbit IgG antibody conjugated to horseradish peroxidase (HRP) (1:10,000, Amersham). The HRP signal was detected using a chemi-luminescence detection kit (SuperSignal Femto Dura Extended Duration Substrate, Pierce) and Hyperfilm X-ray film (Amersham Biosciences).
Furthermore, in the SNAP-, cytokines-, γ-irradiation, and adriamycin-treated cells an additional band of 129 kD was evident.

noxin mRNA = assay: Northern blot time course of noxin mRNA induction
Procedure: Total RNA was extracted from different adult mouse tissues and analyzed for noxin mRNA by Northern hybridization. Northern blot analysis was carried out as follows. Total RNA (10 μg) was separated by denaturing formaldehyde-agarose gel electrophoresis and transferred onto a nylon membrane (Hybond-N^+, Amersham). The membrane was pre-hybridized with hybridization buffer (0.05 M sodium phosphate buffer, 5×SSC, 4×Denhardt's solution, 1% SDS, 50% formamide, 0.1 mg/ml salmon sperm DNA, and 0.2 mg/ml yeast tRNA) for 6 h at 42° C. and hybridized with the same buffer containing 100,000 cpm/ml [α-^32P] dCTP-labeled noxin cDNA probe amplified by PCR from pFLAG-noxin. Following hybridization for 20 h at 42° C., the membrane was washed twice with 2×SSC for 5 min at room temperature, twice with 0.2×SSC for 5 min at 65° C. and twice with 1×SSC with 3% glycerol for 5 min at room temperature. The membrane was exposed for 3 days at −70° C. using X-OMAT X-ray film (Kodak).
Noxin was identified as an NO-inducible gene and the time course of its induction by the NO donor SNAP was determined. Noxin mRNA levels as determined by Northern blot started to increase 2 h after the addition of SNAP and reached maximal levels 8 h after the addition (FIG. 6A). The pattern of noxin induction by SNAP was similar to that of a p53-dependent gene mdm2. Results for β-actin are shown as a control.

[2] = tested on: MEFs from wild type and noxin-/- mice; assay: BrdU/PI flow cytometry of MEFs released from serum arrest, with SNAP
Procedure: Since noxin can induce cell cycle arrest and, in addition, respond to various types of stress stimuli, including NO, the growth characteristics of MEFs isolated from noxin^−/− animals or their wild type (noxin^+/+) littermates were compared. MEFs from wild type and noxin^−/− mice were arrested with low serum (0.1%) culture medium for 24 h and released by adding 10% serum. Cells were either left untreated or exposed to SNAP. At the time of release, BrdU was added to the culture medium and cells were further incubated for 4, 16, or 22 h (FIG. 17, indicated). Cells were collected, stained with PI and analyzed by flow cytometry for BrdU-positive cells (FIG. 17, X-axis: PI, Y-axis: BrdU) and for cell cycle distributions (FIG. 18, X-axis: PI and Y-axis: number of cells) (Fraction P3=G1, Fraction P4=S, Fraction P5=G2/M and Fraction P6=Sub-G1 populations). […]
The growth of noxin^−/− MEFs under normal conditions (FIG. 17g-i) and after addition of SNAP (FIGS. 17j-l) were similar to that of wild type MEFs (FIG. 17a-c and FIG. 17d-f). However, the fraction of sub-G1 cells was higher in noxin-deficient (noxin^−/−) cells (Fraction P6) at each time point analyzed than in wild type (noxin^+/+) MEFs (13.8, 16.3, and 11.5 vs. 9.7, 5.1, and 3.5%, respectively, FIG. 18 fraction P6).

[3] = tested on: noxin protein in NIH3T3 cells; assay: Subcellular localization of endogenous noxin by immunofluorescence; conditions: antibody against C-terminal region peptide
[4] = tested on: noxin mRNA in NIH3T3 cells; assay: Q-PCR of noxin mRNA in NIH3T3 cells exposed to stress stimuli; conditions: for induction of noxin mRNA: NIH3T3 cells exposed for 16 hours, Q-PCR
Procedure: The cDNA was diluted, mixed with 2×SYBR Green PCR Master Mix (Applied Biosystems) and 0.3 μM forward and reverse primers, and amplified using the ABI PRISM 7700 Sequence Detection System (Applied Biosystems). Primers (Sigma Genosys) for noxin and β-actin were designed using Primer Express software (Applied Biosystems) assuming the Tm value of 58-60° C. and the amplicon size of 70-150 bp:
The PCR conditions for the thermal cycler were as follows: denaturation (1 cycle at 95° C. for 10 min), amplification (40 cycles at 95° C. for 15 sec and 60° C. for 1 min). During the amplification, the fluorescence of each sample in the plate was detected in real time and an amplification curve was drawn by Sequence Detection System Software (Applied Biosystems) to get the threshold cycle Cτ, the cycle number at which the curve starts to rise over the background noise. The data from noxin amplifications were normalized using the Cτ value from the β-actin set for each sample and the relative difference in the amount of noxin RNA in untreated and in stress-exposed cells was calculated.
Noxin is induced not only by NO but also by other known stress stimuli. NIH3T3 cells were exposed for 16 hours to γ-irradiation (γ-IR), UV-irradiation (UV-IR), the chemotherapeutic agent adriamycin (ADR), hydrogen peroxide (H2O2), and a mixture of cytokines (TNF-α, IFN-γ, and IL-1β) which is known to be a potent inducer of reactive oxygen and nitrogen species.

NIH3T3 cells [5] = assay: DNA content (PI flow cytometry) of shRNA-transfected, nocodazole-treated NIH3T3 cells; conditions: for fraction of cells in the sub-G1 population: nocodazole for 20 h
Procedure: For this experiment, NIH3T3 cells were transfected with 1 μg (HPC) or 2 μg (2×HPC) of the HPC shRNA construct, treated with nocodazole for 20 h, collected, stained with PI, and analyzed for DNA content using flow cytometry. The downregulation of noxin using this shRNA construct decreased the fraction of cells in G2/M and increased the fraction of cells in the sub-G1 population: 5.7±0.4% in control cells vs. 7.8±1.3% in cells transfected with 1 μg of HPC, and 8.0±1.7% in cells transfected with 2 μg of HPC (FIG. 20B).

noxin = assay: Suppression of FLAG-noxin protein by shRNA constructs (co-transfection, Western blot); conditions: NIH3T3 cells co-transfected with shRNA, FLAG-noxin and luciferase
Excerpt: The role of noxin in normal cells was probed by down regulating its expression using the RNAi approach. Plasmids expressing six different noxin shRNA (FIG. 22, depicted as HPA-HPF) under control of the human U6 promoter were generated as described (Paddison et al., Proc Natl Acad Sci U.S.A. 99:1443-8 (2002)). The 6 hairpin structures correspond to the following noxin nucleotide positions: The target U6 promoter cassette DNA was amplified using a 5′-primer corresponding to the SP6 site at the 5′-end of the U6 promoter cassette and a long 3′ primer complementary to the 3′-end of the promoter and containing sequences for the noxin shRNA and a pol III termination site. The PCR fragments were subcloned into pENTR-TOPO-D vector (Invitrogen) and then transferred into pMSCV-puro vector by a clonase (Invitrogen) reaction. These six, short hairpin RNA (shRNA) constructs were generated and corresponded to different regions of noxin mRNA and their binding efficiency was compared by co-expressing them with recombinant noxin cDNA (FIG. 20A). To select shRNA constructs, six different shRNA constructs (HPA to HPF) were produced and examined for their ability to suppress the expression of noxin protein. […] After normalization, protein samples were analyzed for the expression of FLAG-noxin protein by Western blot.

NIH3T3 cells [6] = assay: Nuclear morphology (Hoechst) of shRNA/YFP-actin co-transfected cells; conditions: co-transfected with YFP-actin, Hoechst stain
Excerpt: Panels 21A-D are images of cells that were co-transfected with the HPC or HPF shRNA constructs together with YFP-actin construct and stained with Hoechst. shRNA-transfected cells were identified by the YFP expression. […] The nuclei of cells transfected with HPF and YFP-actin or with YFP-actin alone and the nuclei of non-transfected cells had normal shape (light blue arrowheads). Scale bar: 10 μm.

NIH3T3 cells [7] = assay: BrdU incorporation (DNA synthesis) in transfected versus untransfected NIH3T3 cells; conditions: BrdU labeling for 24 h
Procedure: In addition, constructs coding for cyan fluorescent protein with a nuclear localization signal (CFP-nuc), yellow fluorescent protein fused to actin (YFP-actin), or vector construct alone were used as controls. Cells were then labeled with BrdU for 24 h and analyzed cells in situ by immunocytochemistry for BrdU and noxin (or other listed proteins) (FIG. 11A-C). In the figures, signals from anti-FLAG antibodies are seen in red; anti-BrdU antibodies are green; Hoechst 33342 (blue) was used for nuclear counter-staining. […] Recombinant protein was detected on a Western blot using the anti-FLAG antibody.

[8] = tested on: noxin protein in NIH3T3 cells; assay: Western blot of noxin protein by cell cycle phase and cell cycle inhibitors
Procedure: as §1, with “The membranes were incubated with anti-noxin antibody (see above) (1:1,000) followed by anti-mouse IgG or anti-rabbit IgG antibody conjugated to horseradish peroxidase (HRP) (1:10,000, Amersham).” left out
The relationship between cell cycle and noxin expression was examined by determining the noxin mRNA levels in cells in various phases of the cell cycle using the methodology as follows: NIH3T3 cells, synchronized by serum starvation (DMEM with 0.5% serum for 24 h) were released from arrest by the addition of 10% serum (corresponds to the 0 h time point). […] Noxin mRNA expression was analyzed using Q-PCR 0, 4, 14, or 20 h after the addition of serum. The cell cycle phase of the cells was determined by flow cytometry in the following manner: […]

Compound: CC(=O)NC(C(=O)O)C(C)(C)SN=O (racemic) [SNAP, S-nitroso-N-acetyl-D,L-penicillamine]
- additional noxin band of 129 kD [1]: evident
- levels of the 125 kD noxin polypeptide [1]: specifically increased
- time after addition at which noxin mRNA levels started to increase (noxin mRNA): 2 h
- time after addition at which noxin mRNA reached maximal levels (noxin mRNA): 8 h
- decrease of the fraction of dividing cells ([2]; MEFs released from low serum arrest, BrdU): 95.5%
- effect on sub-G1 fraction (Fraction P6) ([2]; noxin+/+ or noxin-/- MEFs): did not noticeably affect
- localization of endogenous noxin protein after exposure [3]: predominantly nuclear localization

Compound: COc1cccc2c1C(=O)c1c(O)c3c(c(O)c1C2=O)C[C@@](O)(C(=O)CO)C[C@@H]3O[C@H]1C[C@H](N)[C@H](O)[C@H](C)O1 [adriamycin]
- additional noxin band of 129 kD [1]: evident
- levels of the 125 kD noxin polypeptide [1]: specifically increased
- induction of noxin mRNA [4]: strong induction

Compound: HPC: noxin shRNA construct, nt 1163-1191 (SEQ ID NO: 16) (DNA GTTGTCATGAAAGTAGATTGTCTGACTCT)
- fraction of cells in G2/M phase (NIH3T3 cells [5]; nocodazole-treated NIH3T3 cells): decreased
- fraction of cells in the sub-G1 population (NIH3T3 cells [5]; transfected with 1 μg construct): 7.8±1.3%
- fraction of cells in the sub-G1 population (NIH3T3 cells [5]; transfected with 2 μg construct): 8.0±1.7%
- inhibition of noxin (FLAG-noxin) expression (noxin): strongest inhibition
- nuclear / chromatin morphology of transfected cells (NIH3T3 cells [6]): condensed chromatin structures

Compound: p21/WAF: cdk inhibitor p21/WAF expressed from transfected plasmid
- fraction of BrdU-positive cells in transfected cells, % of the value for the untransfected cells (NIH3T3 cells [7]): 39%

Compound: COC(=O)Nc1nc2ccc(C(=O)c3cccs3)cc2[nH]1 [nocodazole]
- cell cycle effect of nocodazole treatment (NIH3T3 cells [5]; NIH3T3 cells, 20 h): accumulation of cells in the G2/M phase
- Noxin levels in response to cell cycle inhibitors [8]: induced

Compound: C[C@@]1(CO)[C@H](O)CC[C@@]2(C)[C@H]1CC[C@H]1C[C@@H]3C[C@@]12CC[C@]3(O)CO [aphidicolin]
- Noxin levels in response to cell cycle inhibitors [8]: induced

Compound: OO [H2O2, hydrogen peroxide]
- levels of the 125 kD noxin polypeptide [1]: specifically increased
- induction of noxin mRNA [4]: strong induction
- noxin mRNA level versus unstimulated cells ([4]; NIH3T3 cells, stress exposure): 13 fold

Compound: HPF: noxin shRNA construct, nt 509-537 (SEQ ID NO: 19) (DNA AAACCCTGGACAGTGGTAGAACTCAGAGC)
- inhibition of noxin (FLAG-noxin) expression (noxin): no effect
- nuclear / chromatin morphology of transfected cells (NIH3T3 cells [6]): normal shape

Source: patent US20090162848A1, “Noxin, a novel stress-induced gene involved in cell cycle and apoptosis” (COLD SPRING HARBOR LABORATORY, priority 2007, published 2009)
